Assay results: US11578061B2, “Inhibitors of LRRK2 kinase” (Halia Therapeutics, Inc., priority 2021, dated 2023)

Target: recombinant human LRRK2 (catalytic domain only [amino acids 970-2527], GST-tagged) (Homo sapiens (Human), UniProt Q5S007)
Test: LRRK2 Enzymatic Assay
Assay type: biochemical
Settings: LRRKtide substrate, [32P]-ATP
Protocol: LRRKtide substrate (peptide sequence RLGRDKYKTLRQIRQ, derived from human ezrin [amino acids 561-573], moesin [amino acids 539-553] and radixin [amino acids 558-570], obtained from SignalChem, catalogue #L10-58, reconstituted in 20 mM Tris-HCl at pH 7.5 to a final concentration of 1 mg/mL, assay concentration 20 μM) and recombinant human LRRK2 (catalytic domain only [amino acids 970-2527], GST-tagged, expressed in insect cells, obtained from ThermoFisher Scientific, catalogue #PV4874, 0.35 mg/mL, assay concentration 30 nM) were mixed in assay buffer (20 mM Hepes pH 7.5, 10 mM MgCl2, 1 mM EGTA, 0.02% Brij35, 0.02 mg/ml BSA, 0.1 mM Na3VO4, 2 mM DTT, 1% DMSO). Compounds of interest (in DMSO, serial 3-fold dilution from 10 μM to 0.5 nM) or control (1% DMSO) were dispensed into the kinase reaction mixture by Acoustic technology (Echo550; nanoliter range). After incubation at room temperature for 20 minutes, the kinase reaction was initiated by addition of [^32P]-ATP (Specific activity 10 μCi/μl) and the mixture was incubated at room temperature for 2 hours. The reaction was then stopped by spotting the reaction mixture on strips of phosphocellulose P81 paper. Following washing, the radioactivity of the P81 paper was measured and kinase activity data were expressed as the percent remaining kinase activity in test samples compared to vehicle (dimethyl sulfoxide) reactions. IC50 values and curve fits were obtained using Prism (GraphPad Software).

recombinant human LRRK2 (catalytic domain only [amino acids 970-2527], GST-tagged), sequence (Q5S007 970-2527): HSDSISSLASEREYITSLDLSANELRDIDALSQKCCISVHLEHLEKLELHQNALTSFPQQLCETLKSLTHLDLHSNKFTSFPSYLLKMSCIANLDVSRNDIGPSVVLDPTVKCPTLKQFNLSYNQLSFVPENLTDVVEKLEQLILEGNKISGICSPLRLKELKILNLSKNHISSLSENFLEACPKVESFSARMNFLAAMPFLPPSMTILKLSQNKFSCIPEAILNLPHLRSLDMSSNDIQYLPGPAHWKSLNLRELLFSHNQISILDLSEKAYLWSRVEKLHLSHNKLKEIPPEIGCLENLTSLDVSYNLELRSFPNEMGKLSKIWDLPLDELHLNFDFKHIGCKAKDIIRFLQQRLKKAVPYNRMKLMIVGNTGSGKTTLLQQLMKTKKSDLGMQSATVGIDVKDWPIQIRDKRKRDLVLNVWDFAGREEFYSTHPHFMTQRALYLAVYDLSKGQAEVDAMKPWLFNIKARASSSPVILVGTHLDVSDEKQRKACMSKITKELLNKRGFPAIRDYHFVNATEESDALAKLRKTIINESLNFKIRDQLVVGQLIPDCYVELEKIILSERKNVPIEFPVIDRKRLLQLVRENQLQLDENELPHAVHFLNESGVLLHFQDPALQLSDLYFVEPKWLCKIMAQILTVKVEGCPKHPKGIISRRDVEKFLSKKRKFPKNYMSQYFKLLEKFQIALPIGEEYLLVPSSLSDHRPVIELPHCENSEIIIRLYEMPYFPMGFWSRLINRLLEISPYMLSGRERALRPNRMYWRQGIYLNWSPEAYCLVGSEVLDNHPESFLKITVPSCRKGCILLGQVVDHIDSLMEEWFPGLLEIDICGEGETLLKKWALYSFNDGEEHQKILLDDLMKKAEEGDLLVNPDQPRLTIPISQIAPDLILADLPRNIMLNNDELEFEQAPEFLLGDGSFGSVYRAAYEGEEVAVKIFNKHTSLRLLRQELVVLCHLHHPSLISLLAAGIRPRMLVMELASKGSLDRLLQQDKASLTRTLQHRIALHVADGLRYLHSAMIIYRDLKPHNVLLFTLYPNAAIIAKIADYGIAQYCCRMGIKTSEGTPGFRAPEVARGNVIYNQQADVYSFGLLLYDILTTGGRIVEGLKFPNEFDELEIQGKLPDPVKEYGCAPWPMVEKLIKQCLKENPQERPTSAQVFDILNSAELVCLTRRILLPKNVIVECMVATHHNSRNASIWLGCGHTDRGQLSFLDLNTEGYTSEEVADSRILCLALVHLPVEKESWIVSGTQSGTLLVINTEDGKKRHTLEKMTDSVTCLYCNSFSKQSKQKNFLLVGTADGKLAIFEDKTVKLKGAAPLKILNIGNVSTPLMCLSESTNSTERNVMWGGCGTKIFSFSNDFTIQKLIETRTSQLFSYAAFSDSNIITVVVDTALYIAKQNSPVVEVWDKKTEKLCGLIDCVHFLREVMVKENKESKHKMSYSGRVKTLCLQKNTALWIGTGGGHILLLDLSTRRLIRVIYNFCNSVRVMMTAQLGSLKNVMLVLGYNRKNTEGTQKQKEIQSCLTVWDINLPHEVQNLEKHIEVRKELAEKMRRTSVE

IC50 [nM]	SMILES
< 50	N#CC1CCC(COc2nc(Nc3ccc(N4CCOCC4)cc3)ncc2F)CC1 (racemic) [Example 272, 4-(((5-fluoro-2-((4-morpholinophenyl)amino)pyrimidin-4-yl)oxy)methyl)cyclohexane-1-carbonitrile]
< 50	C[C@@H]1CN(c2ccc(Nc3ncc(F)c(OCC4CCC(C#N)CC4)n3)cc2)C[C@H](C)O1 (mixture of isomers) [Example 273, 4-(((2-((4-((2S,6R)-2,6-dimethylmorpholino)phenyl)amino)-5-fluoropyrimidin-4-yl)oxy)methyl)cyclohexane-1-carbonitrile]
< 50	Cc1nn(C(C)(C)C#N)cc1Nc1ncc(F)c(OCC2CCC(C#N)CC2)n1 (racemic) [Example 274, 4-(((2-((1-(2-cyanopropan-2-yl)-3-methyl-1H-pyrazol-4-yl)amino)-5-fluoropyrimidin-4-yl)oxy)methyl)cyclohexane-1-carbonitrile]
50 to 200	CC(C)OC1CCC(COc2nc(Nc3ccc(N4CCOCC4)cc3)ncc2F)CC1 (racemic) [Example 278, 5-fluoro-4-((4-isopropoxycyclohexyl)methoxy)-N-(4-morpholinophenyl)pyrimidin-2-amine]
200 to 400	CC(C)OC1CCC(COc2nc(Nc3ccc(N4C[C@@H](C)O[C@@H](C)C4)cc3)ncc2F)CC1 (mixture of isomers) [Example 279, N-(4-((2S,6R)-2,6-dimethylmorpholino)phenyl)-5-fluoro-4-((4-isopropoxycyclohexyl)methoxy)pyrimidin-2-amine]
50 to 200	Cc1nn(C(C)(C)C#N)cc1Nc1ncc(F)c(OCC2CCC(OC(C)C)CC2)n1 (racemic) [Example 280, 2-(4-((5-fluoro-4-((4-isopropoxycyclohexyl)methoxy)pyrimidin-2-yl)amino)-3-methyl-1H-pyrazol-1-yl)-2-methylpropanenitrile]
200 to 400	Cc1nn(C(C)(C)C#N)cc1Nc1ncc(F)c(OCC2CCC(OC(F)(F)F)CC2)n1 (racemic) [Example 284, 2-(4-((5-fluoro-4-((4-(trifluoromethoxy)cyclohexyl)methoxy)pyrimidin-2-yl)amino)-3-methyl-1H-pyrazol-1-yl)-2-methylpropanenitrile]
50 to 200	C[C@@H]1CN(c2ccc(Nc3ncc(F)c(OCC4CCNCC4F)n3)cc2)C[C@H](C)O1 (single isomer, unassigned) [Example 168]
50 to 200	C[C@@H]1CN(c2ccc(Nc3ncc(F)c(OCC4CCNCC4F)n3)cc2)C[C@H](C)O1 (single isomer, unassigned) [Example 169]
50 to 200	Cc1nn(C(C)(C)C#N)cc1Nc1ncc(F)c(OCC2CCNCC2F)n1 (single isomer, unassigned) [Example 170, 2-(4-((5-fluoro-4-((3-fluoropiperidin-4-yl)methoxy)pyrimidin-2-yl)amino)-3-methyl-1H-pyrazol-1-yl)-2-methylpropanenitrile]
200 to 400	Cc1nn(C(C)(C)C#N)cc1Nc1ncc(F)c(OCC2CCNCC2F)n1 (single isomer, unassigned) [Example 171, 2-(4-((5-fluoro-4-((3-fluoropiperidin-4-yl)methoxy)pyrimidin-2-yl)amino)-3-methyl-1H-pyrazol-1-yl)-2-methylpropanenitrile]
50 to 200	CC(=O)N1CCC(COc2nc(Nc3ccc(N4CCOCC4)cc3)ncc2F)C(F)C1 (single isomer, unassigned) [Example 172, 1-(3-fluoro-4-(((5-fluoro-2-((4-morpholinophenyl)amino)pyrimidin-4-yl)oxy)methyl)piper-idin-1-yl)ethan-1-one]
< 50	CC(=O)N1CCC(COc2nc(Nc3ccc(N4CCOCC4)cc3)ncc2F)C(F)C1 (single isomer, unassigned) [Example 173, 1-(3-fluoro-4-(((5-fluoro-2-((4-morpholinophenyl)amino)pyrimidin-4-yl)oxy)methyl)piper-idin-1-yl)ethan-1-one]
200 to 400	CC(=O)N1CCC(COc2nc(Nc3ccc(N4C[C@@H](C)O[C@@H](C)C4)cc3)ncc2F)C(F)C1 (single isomer, unassigned) [Example 174]
